According to article PMC11100219, “Dual-function antimicrobial-antibiofilm peptide hybrid to tackle biofilm-forming Staphylococcus epidermidis” (Annals of Clinical Microbiology and Antimicrobials, 2024):
Values after ≈ are worked out from the molar mass of the structure shown. Residues, ends and D or L forms follow the SMILES beside them.

Key:
[1] = test system: Bacillus cereus ATCC 11778; test: Broth microdilution MIC / MBC; type: cell-based; conditions: 24 h, 37°C
Procedure: (§1) The minimal inhibitory concentrations (MICs) of peptide derivatives versus planktonic bacteria were assessed using a modification of the broth microdilution assay previously described in the National Committee for Clinical Laboratory Standards (NCCLS). In brief, bacteria at mid-logarithmic growth were collected by centrifugation at 2,500 × g for 5 min. Subsequently, the pellet was resuspended and adjusted in Mueller-Hinton Broth (MHB; BD Bacto™, USA) to an OD620 of 0.05. Fifty µL of bacterial suspensions was transferred to 96-well microplates. Later, 50 µL of peptide derivatives at 0.98–250 µg/mL in 10 mM PBS, was added to wells and incubated for 24 h at 37°C with continuous shaking at 220 rpm. […] The experiments were done in three technical replicates and repeated independently.
(§2) To determine minimal bactericidal concentrations (MBCs) of the peptides, 50 µL of supernatant from non-turbid wells was plated on TSA, and the number of colony-forming units (CFUs) was observed after 24 h of incubation at 37°C. MBC was defined as the minimum concentration of peptide at which no bacterial colony was observed on the plate.

[2] = test system: Escherichia coli ATCC 25922; test: Broth microdilution MIC / MBC; type: cell-based; conditions: 24 h, 37°C
Procedure: as §1, §2

[3] = test system: Listeria monocytogenes 10403s; test: Broth microdilution MIC / MBC; type: cell-based; conditions: 24 h, 37°C
Procedure: as §1, §2

[4] = test system: Pseudomonas aeruginosa ATCC 27853; test: Broth microdilution MIC / MBC; type: cell-based; conditions: 24 h, 37°C
Procedure: as §1, §2

[5] = test system: Staphylococcus aureus ATCC 25923; test: Broth microdilution MIC / MBC; type: cell-based; conditions: 24 h, 37°C
Procedure: as §1, §2

[6] = test system: human red blood cells (hRBCs); test: Hemolysis activity (hemoglobin release); type: cell-based; conditions: 1 h, 37°C
Procedure: The effect of peptides on human red blood cells (hRBCs) was assessed by observing the release of hemoglobin upon treated with peptide. Briefly, the hRBCs were obtained from healthy volunteers and subsequently diluted in 10 mM PBS to a concentration of 2% hRBCs. An equal volume of 2% hRBCs and peptide at concentration of 0.98–250 µg/mL in 10 mM PBS mixtures were incubated for 1 h at 37°C. Following incubation, the suspension was centrifuged, then supernatants were collected and transferred to 96-well microplates for measurement of absorbance at OD of 405 nm (OD405). This study was performed in accordance with the Thammasat University Ethics Committee (COA No. 066/2562). Written informed consent was obtained from all volunteers.

[7] = test system: human lung fibroblast MRC-5 cell lines (ATCC CCL-171); test: MTT cytotoxicity assay; type: cell-based; conditions: MRC-5, 250 µg/mL (maximum concentration tested), 24 h
Procedure: The toxicity of peptide BiF2_5K7K against human lung fibroblast MRC-5 cell lines (ATCC CCL-171) was investigated by MTT colorimetric assay. Briefly, MRC-5 cells were cultured in Minimum Essential Medium [MEM; supplemented with 10% heat-inactivated FBS and 1% Penicillin-Streptomycin] in 5% CO2 at 37°C. Following an overnight incubation, MRC-5 cells were diluted to 10,000 cells/well and placed in 96-well microplates. Subsequently, they were exposed to BiF2_5K7K at 0.98 to 250 µg/mL. After incubation for 24 h, MTT solution (0.4 mg/mL) was added to each well and incubated for an additional 3 h under 5% CO2 at 37°C. The supernatant was then removed and 100 µL DMSO added, and absorbance was measured at 570 nm using a microplate reader.

[8] = test system: S. epidermidis biofilm cells; test: Biofilm cell viability, MTT assay; type: cell-based, Staphylococcus epidermidis; conditions: 24 h
Procedure: The biofilm cell viability after treated with hybrid peptide BiF2_5K7K was examined by 3-(4,5-Dimethylthiazol-2-yl)-2,5-Diphenyltetrazolium bromide or MTT colorimetric assays. Bacterial suspensions (10^6 CFU/mL in TSB) and peptide at concentration ranging from 0.98 to 250 µg/mL in 10 mM PBS were incubated in 96-well microtiter plates at 37°C for 24 h. After incubation, supernatant was discarded, followed by the addition of 0.4 mg/mL MTT (Sigma-Aldrich, USA) in 10 mM PBS to each well and incubated for 3 h at 37°C. Subsequently, supernatant was removed and dimethyl sulfoxide (DMSO; Fisher BioReagents™, UK) was added to dissolve the formed formazan crystals in wells. At a wavelength of 570 nm, the optical densities of the solutions were then determined by microplate reader.

[9] = test system: S. epidermidis biofilm matrix; test: Confocal laser scanning microscopy of biofilm formation (AAA model); type: cell-based, Staphylococcus epidermidis; conditions: at MBIC50 (7.81 µg/mL), 24 h; p-value < 0.001
Procedure: An Amsterdam active attachment (AAA) model was used to assess the effectiveness of BiF2_5K7K to inhibit biofilm formation as previously described. In a 24-well microplate, various concentrations of BiF2_5K7K were incubated overnight with 10^7 CFU/mL of S. epidermidis. The plate was then covered with a sanitary stainless-steel lid containing double-glass coverslips. Following 24 h of incubation at 37°C, the biofilms were washed, and then […] green Alexa-ConA (Sigma-Aldrich, USA) was applied for 30 min to stain the biofilms. After staining, biofilms were fixed for 3 h with 2.5% glutaraldehyde. Biofilm images were acquired using a confocal laser scanning microscope (CLSM; Carl-Zeiss/LSM800, Zeiss, Germany). The fluorescence intensity of each test was analysed using ZEN 2.1 (blue edition) software.

[10] = test system: preformed S. epidermidis biofilm; test: Biofilm eradication activity (peg lid, colony counting); type: cell-based, Staphylococcus epidermidis; conditions: 24 h treatment
Procedure: The eradication capacity of BiF2_5K7K against preformed biofilm was examined as previously described with some modifications. In brief, suspensions of S. epidermidis with a final density of 10^6 CFU/mL were added to 96-well microplates, then covered with 96-peg lids (Nunc™ Immuno TSP Lids, Denmark). Following 24 h of incubation at 37°C, the peg lids were washed with 0.85% NaCl to remove culture media and non-adherent cells. Afterwards, the biofilms adherent to peg lids were incubated at 37°C for 24 h with different concentrations of peptide derivatives. The peg lids were subsequently washed and placed on new plates containing PBS. The biofilms on the lid were removed using a water bath sonicator (Bandelin SONOREX™, Germany). Biofilms were subsequently diluted and then placed on TSA. Minimum biofilm eradication concentrations at 50% and 90% (MBEC50 and MBEC90) refer to the concentration of the peptide at which established biofilm was eradicated by at least 50% and 90%, respectively.

[11] = broth microdilution, MHB, 0.98-250 µg/mL, visible inspection
[12] = plating of non-turbid wells on TSA

CC[C@H](C)[C@H](NC(=O)[C@H](CCCCN)NC(=O)[C@H](CCCCN)NC(=O)[C@@H](NC(=O)[C@H](CC(C)C)NC(=O)[C@@H](N)Cc1ccccc1)C(C)C)C(=O)N[C@@H](CCCCN)C(=O)N[C@@H](CCCCN)C(=O)N[C@H](C(=O)N[C@@H](CC(C)C)C(=O)N[C@@H](CCCNC(=N)N)C(=O)N[C@@H](CCCNC(=N)N)C(N)=O)[C@@H](C)CC [BiF2_5K7K] (H-FLVKKIKKILRR-NH2; N-terminus assumed)
MIC [1, 11]: 250 µg/mL (≈ 162 µM)
MBC [1, 12]: 250 µg/mL (≈ 162 µM)
MIC [2, 11]: 250 µg/mL (≈ 162 µM)
MBC [2, 12]: 250 µg/mL (≈ 162 µM)
MIC [3, 11]: 31.25 µg/mL (≈ 20.3 µM)
MBC [3, 12]: 62.5 µg/mL (≈ 40.6 µM)
MIC [4, 11]: 62.5 µg/mL (≈ 40.6 µM)
MBC [4, 12]: 125 µg/mL (≈ 81.1 µM)
MIC [5, 11]: > 250 µg/mL
MBC [5, 12]: > 250 µg/mL
hemolytic activity ([6]; at 250 µg/mL (maximum concentration tested)): less than 10%
MHC, minimum hemolytic concentration ([6]; peptide concentration causing 10% hemolysis of hRBCs, 2% hRBCs in 10 mM PBS, OD405): >250 µg/mL
cell viability [7]: > 99%
viability of biofilm cells ([8]; at MIC (15.63 µg/mL)): remained viable
viability of biofilm cells ([8]; at higher concentrations (>15.63 µg/mL)): no growth of biofilm cells
fluorescence intensity of Alexa Fluor 488 stained biofilm vs untreated control [9]: significantly lower
MBEC50 ([10]; 24 h preformed biofilm on peg lids, 37°C): 31.25 µg/mL
MBEC90 ([10]; more than 90% of mature biofilm eradicated): 125 µg/mL
